Experimental data taken from ChEMBL document CHEMBL1158213, “Bioactive steroidal alkaloids from Solanum umbelliferum” (1996).
Calls of active or inactive are those of the source. The rule behind the calls is not given here.

Columns and labels:
Saccharomyces cerevisiae [1] = assay: DNA damaging activity against DNA repair-deficient RS 322YK (rad 52Y) yeast assessed as drug concentration required to produce 12 mm zone of inhibition; type: functional
Saccharomyces cerevisiae [2] = assay: DNA damaging activity against DNA repair-deficient RS 321 yeast assessed as drug concentration required to produce 12 mm zone of inhibition; type: functional
Saccharomyces cerevisiae [3] = assay: DNA damaging activity against DNA repair-deficient RS 167N (rad6) yeast assessed as drug concentration required to produce 12 mm zone of inhibition; type: functional
Saccharomyces cerevisiae [4] = assay: DNA damaging activity against DNA repair-deficient RS 188N (RAD+) yeast assessed as drug concentration required to produce 12 mm zone of inhibition; type: functional
Saccharomyces cerevisiae [5] = assay: DNA damaging activity against DNA repair-deficient RS 322YK (rad 52Y) yeast assessed as drug concentration required to produce 12 mm zone of inhibition up to 8000 ug/mL; type: functional, organism-based
Saccharomyces cerevisiae [6] = assay: DNA damaging activity against DNA repair-deficient RS 321 yeast assessed as drug concentration required to produce 12 mm zone of inhibition up to 8000 ug/mL; type: functional, organism-based
Saccharomyces cerevisiae [7] = assay: DNA damaging activity against DNA repair-deficient RS 167N (rad6) yeast assessed as drug concentration required to produce 12 mm zone of inhibition up to 8000 ug/mL; type: functional, organism-based
Saccharomyces cerevisiae [8] = assay: DNA damaging activity against DNA repair-deficient RS 188N (RAD+) yeast assessed as drug concentration required to produce 12 mm zone of inhibition up to 8000 ug/mL; type: functional, organism-based

Row | SMILES | IC12 (Saccharomyces cerevisiae [1]) [µg/mL] | IC12 (Saccharomyces cerevisiae [2]) [µg/mL] | IC12 (Saccharomyces cerevisiae [3]) [µg/mL] | IC12 (Saccharomyces cerevisiae [4]) [µg/mL] | Activity (Saccharomyces cerevisiae [5]) | Activity (Saccharomyces cerevisiae [6]) | Activity (Saccharomyces cerevisiae [7]) | Activity (Saccharomyces cerevisiae [8])
1 | C[C@@H]1CC[C@]2(NC1)O[C@H]1C[C@H]3[C@@H]4CC=C5C[C@@H](O)CC[C@]5(C)[C@H]4CC[C@]3(C)[C@H]1[C@@H]2C [SOLASODINE] | 5 | 1.9 | > 10 | > 6.1 |  |  |  | 
2 | CC[C@@]1(O)C(=O)OCc2c1cc1n(c2=O)Cc2cc3ccccc3nc2-1 [CAMPTOTHECIN] | 0.9 |  |  | 100 |  |  |  | 
3 | CC(=O)O[C@H]1CC[C@@]2(C)C(=CC[C@H]3[C@@H]4C[C@@H]5O[C@@]6(CC[C@@H](C)CN6C(C)=O)[C@@H](C)[C@@H]5[C@@]4(C)CC[C@@H]32)C1 |  |  |  |  | inactive | inactive | inactive | inactive
4 | C[C@@H]1CC[C@]2(NC1)O[C@H]1C[C@H]3[C@@H]4CC=C5C[C@@H](O[C@@H]6O[C@H](CO)[C@@H](O)[C@H](O)[C@H]6O)CC[C@]5(C)[C@H]4CC[C@]3(C)[C@H]1[C@@H]2C |  |  |  |  | inactive | inactive | inactive | inactive
5 | CC(=O)O[C@H]1CC[C@@]2(C)C(=CC[C@H]3[C@@H]4C[C@@H]5O[C@@]6(CC[C@@H](C)CN6)[C@@H](C)[C@@H]5[C@@]4(C)CC[C@@H]32)C1 | 21 | 3 | 30 | 15.7 |  |  |  | 
6 | CC(=O)N1C[C@H](C)CC[C@@]12O[C@H]1C[C@H]3[C@@H]4CC=C5C[C@@H](O)CC[C@]5(C)[C@H]4CC[C@]3(C)[C@H]1[C@@H]2C |  |  |  |  | inactive | inactive | inactive | inactive
